Common to all, as to type: functional
In experiment [1] the test system is Candida albicans. Briefly: Antifungal activity against Candida albicans ATCC 44859 after 24 hrs by broth microdilution assay. Particulars: Candida albicans, ATCC 44859, 24 h.
In experiment [2] the test system is Aspergillus fumigatus. Briefly: Antifungal activity against Aspergillus fumigatus 231 after 48 hrs by broth microdilution assay. The following applies: Aspergillus fumigatus, 231, 48 h. (In general: Broth dilution looks for growth in wells or tubes with falling amounts of substance.)
Experiment [3] concerns Aspergillus fumigatus. Briefly: Antifungal activity against Aspergillus fumigatus 231 after 24 hrs by broth microdilution assay. Particulars: Aspergillus fumigatus, 231, 24 h.
The subject of experiment [4] is Pichia kudriavzevii. Briefly: Antifungal activity against Candida krusei E28 after 48 hrs by broth microdilution assay. Particulars: Pichia kudriavzevii, E28, 48 h.
In experiment [5] the test system is Trichophyton mentagrophytes. Briefly: Antifungal activity against Trichophyton mentagrophytes 445 after 120 hrs by broth microdilution assay. The following applies: Trichophyton mentagrophytes, 445, 120 h.
In experiment [6] the test system is Nakaseomyces glabratus. The experiment can be described thus: Antifungal activity against Candida glabrata 20/I after 48 hrs by broth microdilution assay. Particulars: Nakaseomyces glabratus, 20/I, 48 h.
Experiment [7] concerns Trichosporon asahii. The experiment can be described thus: Antifungal activity against Trichosporon asahii 1188 after 48 hrs by broth microdilution assay. Particulars: Trichosporon asahii, 1188, 48 h.
The subject of experiment [8] is Nakaseomyces glabratus. Briefly: Antifungal activity against Candida glabrata 20/I after 24 hrs by broth microdilution assay. Particulars: Nakaseomyces glabratus, 20/I, 24 h.
The test system of experiment [9] is Lichtheimia corymbifera. Briefly: Antifungal activity against Absidia corymbifera 272 after 48 hrs by broth microdilution assay. The following applies: Lichtheimia corymbifera, 272, 48 h.
Experiment [10] has as its system Trichosporon asahii. Briefly: Antifungal activity against Trichosporon asahii 1188 after 24 hrs by broth microdilution assay. Particulars: Trichosporon asahii, 1188, 24 h.
Experiment [11] concerns Candida tropicalis. Briefly: Antifungal activity against Candida tropicalis 159 after 24 hrs by broth microdilution assay. The following applies: Candida tropicalis, 159, 24 h.
The test system of experiment [12] is Candida albicans. The experiment can be described thus: Antifungal activity against Candida albicans ATCC 44859 after 48 hrs by broth microdilution assay. Particulars: Candida albicans, ATCC 44859, 48 h.
Experiment [13] concerns Candida tropicalis. Briefly: Antifungal activity against Candida tropicalis 159 after 48 hrs by broth microdilution assay. Particulars: Candida tropicalis, 159, 48 h.
Experiment [14] concerns Pichia kudriavzevii. Briefly: Antifungal activity against Candida krusei E28 after 24 hrs by broth microdilution assay. Particulars: Pichia kudriavzevii, E28, 24 h.
Experiment [15] relates to Lichtheimia corymbifera. The experiment can be described thus: Antifungal activity against Absidia corymbifera 272 after 24 hrs by broth microdilution assay. The following applies: Lichtheimia corymbifera, 272, 24 h.
Experiment [16] concerns Trichophyton mentagrophytes. Briefly: Antifungal activity against Trichophyton mentagrophytes 445 after 72 hrs by broth microdilution assay. Particulars: Trichophyton mentagrophytes, 445, 72 h.

SMILES strings stand for the structures. Values after ≈ are worked out from the molar mass of the structure shown.

Take `Cc1ccc(C(=S)NCc2ccc(Cl)cc2)c(O)c1`: the MIC (against Candida albicans [1]; with Aspergillus fumigatus [2]; in the experiment with Aspergillus fumigatus [3]; against Pichia kudriavzevii [4]; in experiment [5]; against Nakaseomyces glabratus [6]) was > 500 µM in each case. The MIC against Trichosporon asahii [7], with Nakaseomyces glabratus [8], in the experiment on Lichtheimia corymbifera [9], against Trichosporon asahii [10], in the experiment with Candida tropicalis [11] and in the experiment with Candida albicans [12] was > 500 µM throughout. For the same molecule, the MIC (against Candida tropicalis [13]; with Pichia kudriavzevii [14]; against Lichtheimia corymbifera [15]; in [16]) was > 500 µM each time.

For the molecule `Oc1cc(Cl)ccc1C(=S)NCc1ccc(Br)cc1`, the MIC (commonly the lowest concentration that inhibits growth of the organism) in the experiment on Candida albicans [1] is 15.6 µM (≈ 5.57 µg/mL); with Aspergillus fumigatus [2], 7.81 µM (≈ 2.79 µg/mL); in the experiment on Aspergillus fumigatus [3], 7.81 µM (≈ 2.79 µg/mL); in the experiment with Pichia kudriavzevii [4], 15.6 µM (≈ 5.57 µg/mL); in experiment [5] it was 1.95 µM (≈ 0.696 µg/mL); in the experiment on Nakaseomyces glabratus [6], 31.2 µM (≈ 11.1 µg/mL). For the same molecule, the MIC stood at 7.81 µM (≈ 2.79 µg/mL) against Trichosporon asahii [7]; 31.2 µM (≈ 11.1 µg/mL) against Nakaseomyces glabratus [8]; 1.95 µM (≈ 0.696 µg/mL) with Lichtheimia corymbifera [9]; 7.81 µM (≈ 2.79 µg/mL) against Trichosporon asahii [10]; 31.2 µM (≈ 11.1 µg/mL) against Candida tropicalis [11]; 31.2 µM (≈ 11.1 µg/mL) with Candida albicans [12]. Moreover, the MIC in the experiment on Candida tropicalis [13] is 31.2 µM (≈ 11.1 µg/mL); in the experiment on Pichia kudriavzevii [14], 3.9 µM (≈ 1.39 µg/mL); against Lichtheimia corymbifera [15] it was 0.98 µM (≈ 0.35 µg/mL); in experiment [16] it was 0.98 µM (≈ 0.35 µg/mL).

For `Cc1ccc(C(=S)NCc2ccc(C(C)(C)C)cc2)c(O)c1`, the MIC (against Candida albicans [1]; in the experiment with Aspergillus fumigatus [2]; with Aspergillus fumigatus [3]; with Pichia kudriavzevii [4]; in [5]; against Nakaseomyces glabratus [6]) was > 500 µM throughout. Further, the MIC in the experiment with Trichosporon asahii [7], in the experiment on Nakaseomyces glabratus [8], against Lichtheimia corymbifera [9], in the experiment with Trichosporon asahii [10], in the experiment on Candida tropicalis [11] and with Candida albicans [12] was > 500 µM in each case. Besides, the MIC (in the experiment on Candida tropicalis [13]; with Pichia kudriavzevii [14]; in the experiment on Lichtheimia corymbifera [15]; in experiment [16]) was > 500 µM in each case.

On to `Cc1ccc(CNC(=S)c2cc([N+](=O)[O-])ccc2O)cc1`, for which the MIC is 500 µM (≈ 151 µg/mL) in the experiment with Candida albicans [1]; 500 µM (≈ 151 µg/mL) in the experiment with Aspergillus fumigatus [2]; 500 µM (≈ 151 µg/mL) in the experiment on Aspergillus fumigatus [3]; > 500 µM against Pichia kudriavzevii [4]; 62.5 µM (≈ 18.9 µg/mL) in [5]; > 500 µM against Nakaseomyces glabratus [6]. For the same molecule, the MIC in the experiment on Trichosporon asahii [7] was 500 µM (≈ 151 µg/mL); in the experiment on Nakaseomyces glabratus [8], > 500 µM; in the experiment on Lichtheimia corymbifera [9], 500 µM (≈ 151 µg/mL); against Trichosporon asahii [10], 500 µM (≈ 151 µg/mL); against Candida tropicalis [11], > 500 µM; against Candida albicans [12] it was > 500 µM. The MIC is > 500 µM with Candida tropicalis [13], > 500 µM with Pichia kudriavzevii [14], 500 µM (≈ 151 µg/mL) in the experiment with Lichtheimia corymbifera [15] and 62.5 µM (≈ 18.9 µg/mL) in experiment [16].

For the origin of these results see ChEMBL document CHEMBL1208720, “N-Benzylsalicylthioamides as novel compounds with promising antimycotic activity” (2010).
